For experiment [1], the target named is T1, Athe_2574 (Anaerocellum bescii, UniProt A0ABY1S640). Nature of the experiment: DSC thermal shift of Athe_2574 with ɑ-glucan substrates. The experiment is classed as binding. As to conditions: Athe_2574 + sugar; 2.5 mg/mL protein, 5 mM sugar; 50 mM HEPES, 300 mM NaCl pH 7.0. An excerpt: (§1) In DSC, proteins are heated at a constant rate to induce thermal denaturation. This can be measured by an increase in the protein’s specific heat capacity Cp(T) as a function of temperature. The melting temperature Tm is defined as the temperature at which the protein attains its maximum heat capacity and becomes fully denatured ([46]). However, the presence of their cognate ligands can induce substrate-binding proteins to adopt a more thermally stable closed conformation, resulting in an increase in Tm ([47]). This ΔTm = |Tm,holo − Tm,apo| difference can be used to determine differential substrate specificity, as preferred ligands that are more tightly bound will yield larger ΔTm values. […] However, other short ɑ-glucans trehalose (ΔTm = 7.23 °C) and maltotriose (ΔTm = 6.63 °C) also yield substantial melting temperature differences. Melting temperature differences are subtler with longer oligosaccharides maltotetraose (ΔTm = 1.57 °C), maltopentaose (ΔTm = 0.95 °C), and maltoheptaose (ΔTm = 0.26 °C) (Fig. 4a). However, as binding of maltose to E. coli MBP is known to increase protein melting temperature by approximately 8 °C, depending on pH, it is unlikely binding is taking place between Athe_2310 and longer maltodextrins (G4–G7) due to their much smaller ΔTm values in comparison ([47], [48]).
(§2) DSC measurements using a MicroCal PEAQ-DSC (Malvern Panalytical) were performed on Athe_2310 and Athe_2574 in combination with a variety of ɑ-glucans: trehalose (G2), maltose (G2), maltotriose (G3), maltotetraose (G4), maltopentaose (G5), and maltoheptaose (G7). The scan rate was set to […], with a max temperature of 130 °C. Protein was mixed with each sugar, yielding final concentrations of 2.5 mg/mL of protein and 5 mM of sugar. A total of 50 mM HEPES, 300 mM NaCl, pH 7.0, was used as the reference buffer. The heat capacity Cp was plotted against temperature and then normalized by the respective run’s maximum Cp value ( Cp,max ). We defined the melting temperature Tm as the temperature corresponding to Cp,max=Cp(T=Tm) . The melting temperature difference ΔTm=|Tm,holo-Tm,apo| is defined as the absolute difference in melting temperature between the melting temperature of a protein-sugar mix and the same protein with no sugar present.
(Differential scanning calorimetry records heat flow against a reference as temperature is scanned.)

Experiment [2] addresses T2, Athe_2310 (Anaerocellum bescii, UniProt A0ABY1S743). Nature of the experiment: DSC thermal shift of Athe_2310 with ɑ-glucan substrates. The experiment is classed as binding. As to conditions: Athe_2310 + sugar; 2.5 mg/mL protein, 5 mM sugar; 50 mM HEPES, 300 mM NaCl pH 7.0.
From the text: as §1, §2

The target of experiment [3] is T1, Athe_2574. Nature of the experiment: biochemical. The class given is binding. Particulars: result in words. How it is done: (§3) Proteins were dialyzed into the following buffer: 50 mM HEPES, 300 mM NaCl, pH 7.0 via 10 kDa MWCO PES filter 20 mL Spin-X Concentrators (Corning). Measurements were performed at 25 °C using a MicroCal PEAQ Isothermal Titration Calorimeter (Malvern Panalytical). A standard titration experiment consisted of the protein sample at 50 µM and the sugar ligand at 500 µM. The stirring was set at 750 rpm. The 280 µL sample of protein was injected with a priming aliquot of 0.2 µL of sugar ligand, followed by 19 successive injections of 2.0 µL at 120 seconds intervals. Integrated heat effects were determined by non-linear regression using a single-site binding model (Microcal PEAQ-ITC Analysis). The fitted isotherms yield the binding dissociation constant and other thermodynamic parameters calculated using the differential form of the Gibbs Free Energy equation ΔGd=-RTln(Kd) . The slope of the binding isotherm at the equivalence point was used to determine the dissociation constant Kd . The association rate constant Ka is defined as Ka=1/Kd .

In experiment [4] the test system is Athe_2310_Mut1 (D69F G279F G278F). Nature of the experiment: DSC screen of mutant Athe_2310_Mut1 with maltodextrins. The class given is binding, Anaerocellum bescii. As to conditions: Fig. S5, result in words.
From the text: We constructed mutant variants Athe_2310_Mut1 (D69F G279F G278F) and Athe_2574_Mut1 (G253F V254F P61W N63F D64F M322A W332A) that each contain point substitutions on residues predicted to be critical for both hydrophobic and hydrophilic contacts. In other words, the mutation of these residues is predicted to confer energetic penalties sufficiently large to prevent substrate binding. […] Similarly, Athe_2574_Mut1, with seven-point mutations due to its greater number of subsites, can no longer recognize maltodextrin substrates of any length (Fig. S6).
as §2, with “The melting temperature difference ΔTm=|Tm,holo-Tm,apo| is defined as the absolute difference in melting temperature between the melting temperature of a protein-sugar mix and the same protein with no sugar present.” left out

The target in experiment [5] is T2, Athe_2310. Nature of the experiment: ITC of Athe_2310 with ɑ-glucan substrates. The class given is binding. How it is done:
as §3, with “Measurements were performed at 25 °C using a MicroCal PEAQ Isothermal Titration Calorimeter (Malvern Panalytical).” left out, “.” for “. The association rate constant Ka is defined as Ka=1/Kd .”

The subject of another experiment is E. coli MBP. Further details: method as in PMID 9007986, doi:10.1007/s00723-020-01232-y. As to conditions: depending on pH; cited from earlier work.

Broadly, the Tm is the temperature at which the thermal transition is half complete. The Kd is a measure of binding affinity in units of concentration.

Each structure is given as a SMILES string. Where “and” joins values, the source holds several entries; their conditions need not be identical. Identical values can stand only once.

T1 sequence (A0ABY1S640 entry or part of it): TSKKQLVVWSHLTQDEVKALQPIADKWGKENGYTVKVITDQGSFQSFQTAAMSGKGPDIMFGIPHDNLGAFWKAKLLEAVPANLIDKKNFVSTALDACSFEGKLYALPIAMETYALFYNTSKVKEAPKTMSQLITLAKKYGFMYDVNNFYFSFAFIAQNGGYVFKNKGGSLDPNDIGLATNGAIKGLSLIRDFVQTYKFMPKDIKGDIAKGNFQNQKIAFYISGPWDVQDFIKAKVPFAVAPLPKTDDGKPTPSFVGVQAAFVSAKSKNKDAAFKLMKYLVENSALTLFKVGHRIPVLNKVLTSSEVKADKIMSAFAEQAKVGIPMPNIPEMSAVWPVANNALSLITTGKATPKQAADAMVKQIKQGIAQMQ
T2 sequence (A0ABY1S743 entry or part of it): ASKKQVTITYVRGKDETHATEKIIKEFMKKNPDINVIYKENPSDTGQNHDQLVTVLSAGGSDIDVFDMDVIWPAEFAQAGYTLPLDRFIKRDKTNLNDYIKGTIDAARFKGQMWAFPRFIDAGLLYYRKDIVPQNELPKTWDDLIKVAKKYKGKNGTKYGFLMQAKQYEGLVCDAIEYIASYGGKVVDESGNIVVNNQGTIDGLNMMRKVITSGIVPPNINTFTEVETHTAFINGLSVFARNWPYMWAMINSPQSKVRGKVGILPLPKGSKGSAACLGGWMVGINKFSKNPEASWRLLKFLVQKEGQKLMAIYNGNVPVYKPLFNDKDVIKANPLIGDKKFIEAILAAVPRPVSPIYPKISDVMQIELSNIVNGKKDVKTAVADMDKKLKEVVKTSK

For the compound `OC[C@H]1O[C@H](O[C@H]2[C@H](O)[C@@H](O)[C@H](O)O[C@@H]2CO)[C@H](O)[C@@H](O)[C@@H]1O` [Maltose, D-Maltose Monohydrate], the Tm at Athe_2574 [1] stood at 97.8 °C. The midpoint of thermal melting (Tm) on Athe_2310 [2] is 110.9 °C and 110.85 °C. Also, the “ITC enthalpy changes of binding / fit of Kd and n” value on Athe_2574 [3] is reported as “too small to fit meaningful”. For the same compound, in experiment [4], the “binding to Athe_2310_Mut1” value is “can no longer bind”. Besides, the dissociation constant (Kd) on Athe_2310 [5] was found to be 3.93 ± 0.78 µM. On Athe_2310 [5] (Athe_2310, ITC 25 °C), this compound yielded a TΔS of -3.85 kcal/mol, a ΔG of -7.38 kcal/mol and a ΔH of -3.53 ± 0.18 kcal/mol. Further, on Athe_2310 [5] (Athe_2310, ITC 25 °C, Ka=1/Kd), the Ka worked out at 254000 M⁻¹. For the same compound, on Athe_2310 [5] (Athe_2310, ITC 25 °C, single-site binding model), the “n (stoichiometry)” value is listed as 0.76 ± 0.02. Also, the “increase of protein melting temperature on binding” value with E. coli MBP is “approximately 8 °C”.
